Earlier results as cited in patent CN104306347A, “一种卡维地洛双层缓释片及其制备方法” (BEIJING D-VENTUREPHARM TECHNOLOGY DEVELOPMENT Co Ltd, priority 2014, dated 2015).

Tests used:
[1] = in vivo

**Q.** For `COc1ccccc1OCCNCC(O)COc1cccc2[nH]c3ccccc3c12` (stereo not shown) [卡维地洛], which “incidence of adverse reactions” value [1] is on record?
**A.** 很低

**Q.** What about the “risk of postural hypotension when taken with food” value [1] of the same compound?
**A.** 可减少引起体位性低血压的危险性

**Q.** And the tolerability [1]?
**A.** 耐受性良好

**Q.** What about the first-pass effect (after oral administration) of the same compound?
**A.** 有明显的首过效应

**Q.** And the oral absorption (after oral administration)?
**A.** 易于吸收

**Q.** What about the “elimination phase half-life (t1/2b)” value (in vivo) of the same compound?
**A.** 7~10 h

**Q.** And the “excretion in urine as unchanged drug” value (in vivo)?
**A.** < 2%

**Q.** And the plasma clearance (in vivo)?
**A.** 500~700 ml/min

**Q.** And the “steady-state volume of distribution” value (in vivo)?
**A.** ~1.5 L

**Q.** And the metabolism (metabolites excreted via bile then faeces)?
**A.** 代谢完全

**Q.** What about the “absolute bioavailability (F)” value (oral) of the same compound?
**A.** 25%~35%

**Q.** What about the “absorption when taken with food” value (taken with food) of the same compound?
**A.** 吸收减慢

**Q.** What about the “relative bioavailability when taken with food” value (taken with food) of the same compound?
**A.** 没有明显影响
